According to patent US12077508B2, “Inhibitors of the Notch transcriptional activation complex kinase (“NACK”) and methods for use of the same” (UNIVERSITY OF MIAMI, priority 2018, dated 2024):
Entries after “also recorded” stand apart in the source; their conditions may differ.

Columns and labels:
[1] = tested on: OE33 cell line; assay: Colony formation assay in OE33 cells; assay type: cell-based, human; conditions: cells treated every other day; FIGS. 5B, 5C
Experimental: (§1) A cell based colony formation assay was used in these experiments. Normal mouse mammary epithelia HC11 cells have little or no endogenous NACK expression, and NACK knockdown had no effect on the growth of HC11 cells (FIG. 5A, lower panel). […] Knockdown of NACK was confirmed by western blot and qPCR (FIGS. 1D and 1E). […] Therefore, compounds that affect OE33 colony formation but not HC11 were desired. In order to screen the compounds, cells were treated with test compounds every other day.
(§2) Colony formation assay was utilized to determine the effect of small molecule inhibitors on cell proliferation. In general, different cell lines (NACK dependent or independent) will be seeded in 6-well plates at a density of 2000 cells per well and allowed to attach overnight. Inhibitor treatment commenced 24 hours post seeding, and the media containing inhibitor was changed every 48 hours thereafter. After 168 hours, colonies were be stained with Crystal Violet (Millipore) and counted.

[2] = tested on: HC11 cells; assay: Colony formation assay in HC11 cells; assay type: cell-based, mouse; conditions: Notch/NACK independent cell line; FIG. 5B
Experimental: as §1, §2

[3] = tested on: HES1 promoter; assay: Chromatin immunoprecipitation (ChIP) at the HES1 promoter in OE33; assay type: cell-based, human; conditions: 24 hours, FIG. 8C
Experimental: Notch/NACK-dependent cells were treated with either DAPT as a positive control, DMSO (vehicle) as a negative control, or compounds for screening for 24 hours. After treatment, cells were cross-linked and sonicated to yield chromatin fragments of approximately 500 bp, as previously described (See Weaver et al., Cancer Research 74, 4741-4751 (2014)). Lysates were immunoprecipitated with either α-Notch1 (Bethyl Laboratories, Montgomery, TX; A301-894A), α-Maml1 (Cell Signaling, 12166s), α-NACK (Bethyl Laboratories, A302-675A), or α-PoIII pSer5 (Abcam, ab5131) antibodies. DNA immunoprecipitates were cleaned using the PCR purification Kit (Qiagen). DNA were detected by Syber green qPCR using HES1 specific oligonucleotide primers (forward: 5′CGTGTCTCCTCCTCCCATT3′ (SEQ ID NO: 2); reverse: 5′GGGGGATTCCGCTGTTAT3′ (SEQ ID NO:3)).

[4] = tested on: OE33 cells; assay: Cell apoptosis assay (Annexin V/PI flow cytometry); assay type: cell-based, human; conditions: day 7 of treatment, FIG. 9A
Experimental: To investigate how Z271-0326 inhibits cell growth in EAC cell lines, the effect of Z271-0326 treatment was evaluated on apoptosis. OE33 was treated either with the GSI DAPT or Z271-0326 every other day, and their effects on apoptosis were analyzed. On day 7 of treatment, cell apoptosis was analyzed using FITC Annexin V/Dead Cell Apoptosis Kit with FIFC annexin V and PI for flow cytometry (Invitrogen, V13242).

C[C@H](NC(=O)Cc1cc(F)cc(F)c1)C(=O)N[C@H](C(=O)OC(C)(C)C)c1ccccc1 [DAPT, reference compound]
OE33 colony formation [1]: reduction in the colony formation
HC11 colony formation / viability [2]: did not alter the viability of HC11 cells; also recorded: insensitive
binding of N1ICD and NACK to the HES1 promoter [3]: abrogated the binding of N1ICD and NACK to the HES1 promoter
increase in the percent of cells undergoing apoptosis compared to the control [4]: twofold
